Entries after “also recorded” stand apart in the source; their conditions may differ.
Columns and labels:
Ts65Dn mice = settings: short-term administration of low doses; cited from earlier work
[1] = test system: Ts65Dn mouse model of Down syndrome; experiment: Novel Object Recognition (NOR) task in Ts65Dn mice; format: in vivo; settings: 0.3 mg/kg IP daily for two weeks, NOR two weeks after treatment end
Experimental: In this case, the effect of the noncompetitive GABAA receptor antagonist pentylenetetrazole (PTZ) on cognitive function in the Ts65Dn mouse model of Down syndrome was assessed with the Novel Object Recognition (NOR) task.
(§1) The NOR task is based on the established finding that mice preferentially explore novel objects relative to remembered objects. The test consists of a training session and a testing session. During the training session, a mouse is allowed 15 minutes to explore freely a training chamber that contains two objects. The amount of time the mouse uses to explore each object is quantified using video monitoring. The mouse is removed from the training session for 24 hours, during which time one of the objects in the training chamber is replaced with a novel object. The mouse is returned to the training chamber for the testing session, during which video monitoring is again used to quantify the amount of time the mouse uses to explore each object.
Ts65Dn mice and wild-type (2N) controls were maintained on a 12:12 light:dark (LD) cycle. At three months of age, their NOR task performance was determined. The animals then received daily intraperitoneal (IP) injections of pentylenetetrazole (PTZ; 0.3 mg/kg) for two weeks (“treatment”). […] Two weeks after treatment end, the NOR task performance of all mice was again determined. […]

wild-type (2N) mice = experiment: Novel Object Recognition (NOR) task in wild-type (2N) mice; format: in vivo, mouse; settings: 0.3 mg/kg IP daily for two weeks, light cycle (FIG. 1 panel B)
Experimental: as §1
Ts65Dn mice and wild-type (2N) controls were maintained on a 12:12 light:dark (LD) cycle. At three months of age, their NOR task performance was determined. The animals then received daily intraperitoneal (IP) injections of pentylenetetrazole (PTZ; 0.3 mg/kg) for two weeks (“treatment”). A control group received vehicle control (saline; NaCl) only for the same duration. The IP injections occurred near the middle of the light phase or during the dark phase of a LD cycle. Two weeks after treatment end, the NOR task performance of all mice was again determined. All NOR tasks were performed during the light phase of a LD cycle. […]

| Compound | cognitive function (Ts65Dn mice) | hippocampal LTP induction (Ts65Dn mice) | performance in the Novel Object Recognition (NOR) task ([1]; dark phase (wakefulness)) | performance in the Novel Object Recognition (NOR) task ([1]; middle of light phase (sleep)) | time spent exploring objects in NOR task (wild-type (2N) mice) |
| --- | --- | --- | --- | --- | --- |
| picrotoxin [PTX] | improve in a long-lasting manner | improve in a long-lasting manner | – | – | – |
| CC(C)(C)[C@]1(O)CC2OC(=O)CC23C(=O)OC2OC(=O)[C@H](O)C231 (stereo partly drawn) [BB, bilobalide] | improve in a long-lasting manner | improve in a long-lasting manner | – | – | – |
| C1CCc2nnnn2CC1 [PTZ, pentylenetetrazole] | improve in a long-lasting manner | improve in a long-lasting manner | some improvement relative to the saline-injected controls; also recorded: less effective in improving performance in the NOR task; also recorded: less effective in improving cognitive function | spent a significantly larger proportion of time of the testing session exploring the novel object; also recorded: normalizes performance in the Novel Object Recognition (NOR) task; also recorded: can improve cognition | more time on the new object during the testing session |
